Source: PMC5517430, “2,3,7,8-Tetrachlorodibenzo-p-dioxin (TCDD)-elicited effects on bile acid homeostasis: Alterations in biosynthesis, enterohepatic circulation, and microbial metabolism” (Scientific Reports, 2017)

Key:
male C57BL/6 mice = test: Whole gut transit time with carmine red dye; format: in vivo, mouse
Procedure: At 27d after the initial dose (PND55), whole gut transit time (WGTT) was determined using carmine red dye, which cannot be intestinally absorbed. At time 0 (t0), mice were orally gavaged with 150 µL of carmine red solution (6% carmine red dye suspended in 0.5% methylcellulose). Fecal pellets were monitored continuously for the presence of carmine red. WGTT represents the time interval between t0 and the first observance of carmine red dye in the fecal pellets.

[1] = set-up: method as in PMID 19660807, PMID 8145287; details: humans; cited from earlier work
[2] = system: hepatic taurine and glycine; set-up: method as in PMID 26582802; details: female mice, cited from earlier work
[3] = system: bsh and baiCD of gut microbiota; test: Degenerate qRT-PCR of bacterial functional genes in fecal pellets; format: in vivo, mouse; details: male mice, 30 µg/kg TCDD
Description: The bsh Hidden Markov Model (HMM) constructed by the Ribosomal Database Project consisted of 12 vetted seed sequences from Lactobacillus, Clostridium, Roseburia, Eubacterium, Butyrivibrio, and Streptococcus species, while the baiCD HMM consisted of 10 vetted seed sequences from Clostridium and Lachnospiraceae species. Using these models, more inclusive sequence sets were created for bsh and baiCD within the ‘FunGene functional gene pipeline & repository’[80] by extracting sequences from GenBank. Setting the HMM consensus percent identity cut-off to ≥40%, nucleotide sequences of bsh and baiCD were obtained from 2633 and 129 bacterial organisms, respectively. Given the diversity of bacterial organisms found to express bsh, the 2633 sequences from FunGene were separated into 4 groups based on nucleotide similarity determined through construction of a phylogenetic tree (Group 1: 423, Group 2: 330, Group 3: 955, Group 4: 925). Bacterial classifications (genus level) of the bsh sequences in each phylogenetic group are depicted in Fig. 8A1. […] The Primer Design terminal program developed by the Ribosomal Database Project (https://github.com/rdpstaff/PrimerDesign) was used to design degenerate primer sets which target conserved regions within baiCD and each phylogenetic group of bsh (Supplementary Table S2). To estimate the overall abundance of bile acid metabolism genes within the gut microbiome, primer sets were selected to target ≥75% of the baiCD sequences and the sequences within each bsh group.
Frozen fecal pellets were crushed into a powder and bacterial DNA was isolated using the QIAamp DNA Stool Mini Kit (Qiagen, Valencia, CA). To investigate bile acid metabolism loci, qRT-PCR was performed on a Bio-Rad CFX Connect Real-Time PCR Detection System as previously described. Gene expression relative to vehicle control was calculated using the 2^−∆∆CT method, with each fecal sample extract normalized to total bacterial DNA levels using universal primers targeting the 16 S ribosomal RNA gene[81]. Gene levels are plotted relative to vehicle control.

serum ALP = test: Serum alkaline phosphatase (ALP) activity, commercial kit; format: in vivo, mouse; details: male mice, 30 µg/kg TCDD every 4 d for 28 d
Procedure: At 25d after the initial dose (PND53), fecal pellets from the previous 24 hours (h) were collected from each cage (4 mice per cage) and stored at −80 °C. At 28d after the initial exposure (PND56), mice (fasted for 6 h) were weighed and blood was collected from the submandibular vein prior to cervical dislocation. The gallbladder length, width, and depth were measured using a micro-caliper. Its volume was calculated assuming an ellipsoid shape: volume (µL) = length (mm) × width (mm) × depth (mm) × π/6[63], [64]. The distal ileum (10 cm section extending from the caecum toward the jejunum) was removed, flushed with Ca^2+/Mg^2+-free phosphate buffered saline (PBS; Sigma), and opened longitudinally. The epithelial lining was scraped into a vial containing TRIzol (Invitrogen, Carlsbad, CA), frozen in liquid nitrogen, and stored at −80 °C. Liver, gonadal white adipose tissue (gWAT), and brown adipose tissue were removed, weighed, frozen in liquid nitrogen, and stored at −80 °C. Serum alkaline phosphatase (ALP) activity was determined using a commercial kit (Pointe Scientific, Canton, MI).

[4] = normalized to 16S rRNA gene, n = 2

Clc1cc2c(cc1Cl)Oc1cc(Cl)c(Cl)cc1O2 [TCDD, 2,3,7,8-tetrachlorodibenzo-p-dioxin]
Whole gut transit time (male C57BL/6 mice; 30 µg/kg TCDD every 4 d, 27 d after initial dose, controls 2.5 h): 4.1 h
Reduction in gut motility (male C57BL/6 mice; 30 µg/kg TCDD vs controls): 1.6 fold
Half-life [1]: 1–11 years
Hepatic taurine level, max fold increase ([2]; p = 0.05): 1.4 fold
Hepatic glycine level, max fold increase ([2]; p = 0.10): 20.3 fold
bsh gene levels within phylogenetic group 4 [3]: unaffected
bsh gene levels within phylogenetic groups 1, 2, and 3 [3]: increased
Clostridium baiCD level (validated primers), fold increase [3, 4]: 2.1 fold
bsh gene level, group 1 primer set 7, fold increase [3, 4]: 21.8 fold
bsh gene level, group 1 primer set 8, fold increase [3, 4]: 7.3 fold
bsh gene level, group 2 primer set 2, fold increase [3, 4]: 7.6 fold
bsh gene level, group 2 primer set 11, fold increase [3, 4]: 7.5 fold
bsh gene level, group 3 primer set 9, fold increase [3, 4]: 4.2 fold
Serum alkaline phosphatase (ALP) activity (serum ALP): unchanged
